Measurements published in ChEMBL document CHEMBL1201862, “PubChem BioAssay data set” (2004).
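The compound was tested at five concentrations on cells cultured in 96-well plates, with a 48-hour exposure period. GI50 marks 50% less growth.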 Active and inactive are the calls of the source. Cut-off read from the data, not from the text of the source: active = GI50 up to about 1.1 µM and inactive = higher.

Assays:
Assay in all cases: growth of human tumour cells (NCI), 48 h
SN12C = test system: SN12C
CAKI-1 = test system: CAKI-1
SK-OV-3 = test system: SK-OV-3
K562 = test system: K562
HCT-116 = test system: HCT-116
U-251 = test system: U-251
HOP-62 = test system: HOP-62
EKVX = test system: EKVX
SNB-75 = test system: SNB-75
SF-268 = test system: SF-268
TK-10 = test system: TK-10
HT-29 = test system: HT-29
PC-3 = test system: PC-3
NCI-H522 = test system: NCI-H522
COLO 205 = test system: COLO 205
MDA-N = test system: MDA-N
MDA-MB-231 = test system: MDA-MB-231
SR = test system: SR
786-0 = test system: 786-0
DMS-273 = test system: DMS-273

Compound	GI50 (SN12C)	GI50 (CAKI-1)	GI50 (SK-OV-3)	GI50 (K562)	GI50 (HCT-116)	GI50 (U-251)	GI50 (HOP-62)	GI50 (EKVX)	GI50 (SNB-75)	GI50 (SF-268)	GI50 (TK-10)	GI50 (HT-29)	GI50 (PC-3)	GI50 (NCI-H522)	GI50 (COLO 205)	GI50 (MDA-N)	GI50 (MDA-MB-231)	GI50 (SR)	GI50 (786-0)	GI50 (DMS-273)
S=C1SCN(C2CCCCCCCCCCC2)CN1C1CCCCCCCCCCC1	> 100 µM (inactive)	> 100 µM (inactive)	> 100 µM (inactive)	> 100 µM (inactive)	> 100 µM (inactive)	> 100 µM (inactive)	67.6 µM (inactive)	> 100 µM (inactive)	> 100 µM (inactive)	> 100 µM (inactive)	> 100 µM (inactive)	> 100 µM (inactive)	> 100 µM (inactive)	67.5 µM (inactive)	> 100 µM (inactive)	> 100 µM (inactive)	> 100 µM (inactive)	71.6 µM (inactive)	> 100 µM (inactive)	
Cn1c(S)nnc1-c1csc(-c2ccc(Cl)cc2)n1	38.8 µM (inactive)	23.4 µM (inactive)	17.6 µM (inactive)	> 100 µM (inactive)	17.7 µM (inactive)	> 10 µM (inactive)	15.4 µM (inactive)	30.7 µM (inactive)	18.7 µM (inactive)	29.3 µM (inactive)	20.4 µM (inactive)	> 100 µM (inactive)	35.7 µM (inactive)	19.4 µM (inactive)	> 100 µM (inactive)	61 µM (inactive)	24 µM (inactive)	> 100 µM (inactive)	17 µM (inactive)	
O=C(NCCCNCCCNC(=O)c1cc(-c2ccccc2)nc2ccccc12)c1cc(-c2ccccc2)nc2ccccc12	1.84 µM (inactive)	1.9 µM (inactive)	2.21 µM (inactive)	1.79 µM (inactive)	1.73 µM (inactive)	1.69 µM (inactive)	1.11 µM (active)	1.68 µM (inactive)	1.49 µM (inactive)	1.83 µM (inactive)	1.91 µM (inactive)	1.75 µM (inactive)	1.6 µM (inactive)	2.01 µM (inactive)	1.9 µM (inactive)	1.89 µM (inactive)	2.01 µM (inactive)	1.67 µM (inactive)	1.74 µM (inactive)	
Cc1ccc(S(=O)(=O)N2CCNCCN(S(=O)(=O)c3ccc(C)cc3)CCN(S(=O)(=O)c3ccc(C)cc3)CC2)cc1	> 100 µM (inactive)	> 100 µM (inactive)	> 100 µM (inactive)	> 100 µM (inactive)	> 100 µM (inactive)	> 100 µM (inactive)	> 100 µM (inactive)	> 100 µM (inactive)	54.3 µM (inactive)	> 100 µM (inactive)	> 100 µM (inactive)	> 100 µM (inactive)	> 100 µM (inactive)	> 100 µM (inactive)	> 100 µM (inactive)	> 100 µM (inactive)	> 100 µM (inactive)	> 100 µM (inactive)	> 100 µM (inactive)	
O=c1[nH]c(=O)n(C2CC(O)C(CS)O2)cc1F (centres undefined)	80.5 µM (inactive)	> 81.7 µM (inactive)	> 100 µM (inactive)	> 93.3 µM (inactive)	56.6 µM (inactive)	72.8 µM (inactive)	37.2 µM (inactive)	> 100 µM (inactive)	55.6 µM (inactive)	20.8 µM (inactive)	83.2 µM (inactive)	66.1 µM (inactive)	81.3 µM (inactive)	> 87.1 µM (inactive)	52.5 µM (inactive)	86.9 µM (inactive)	> 80 µM (inactive)	56.6 µM (inactive)	21.7 µM (inactive)	
COc1ccc(C(c2ccc(OC)cc2)N2C(=O)CCC2C(=O)O)cc1 (centres undefined)	> 100 µM (inactive)	> 100 µM (inactive)	> 100 µM (inactive)	> 100 µM (inactive)	> 100 µM (inactive)	> 100 µM (inactive)	> 100 µM (inactive)	> 100 µM (inactive)	> 100 µM (inactive)	> 100 µM (inactive)	> 100 µM (inactive)	> 100 µM (inactive)	> 100 µM (inactive)	> 100 µM (inactive)	> 100 µM (inactive)	> 100 µM (inactive)	> 100 µM (inactive)	> 100 µM (inactive)	> 100 µM (inactive)	
CC1OC(n2ccc(=O)[nH]c2=O)C=C(OC(=O)c2ccccc2)C1=O (centres undefined)	88.3 µM (inactive)	42.6 µM (inactive)	> 100 µM (inactive)	> 100 µM (inactive)		29 µM (inactive)	71.9 µM (inactive)	> 100 µM (inactive)	27 µM (inactive)		49 µM (inactive)	44.6 µM (inactive)			> 100 µM (inactive)				> 100 µM (inactive)	> 100 µM (inactive)
CCOC(=O)C1(C(=O)OCC)C[C@H]2CON=C2[C@@H]1c1ccc(C(F)(F)F)cc1	94.8 µM (inactive)	30.9 µM (inactive)	57.8 µM (inactive)	35.2 µM (inactive)	29.6 µM (inactive)	64.7 µM (inactive)	21.9 µM (inactive)	29.5 µM (inactive)	62.5 µM (inactive)	> 100 µM (inactive)	67 µM (inactive)	32 µM (inactive)	42.9 µM (inactive)	24.7 µM (inactive)	26.2 µM (inactive)	45.7 µM (inactive)	> 100 µM (inactive)	35.4 µM (inactive)	46.9 µM (inactive)	
CN1CCc2c1nc(-c1ccccc1)c1c2N(C)CC1	62.7 µM (inactive)	28.1 µM (inactive)	> 100 µM (inactive)	25.4 µM (inactive)	28.1 µM (inactive)	> 100 µM (inactive)	43.8 µM (inactive)	> 100 µM (inactive)	> 100 µM (inactive)	> 100 µM (inactive)	> 100 µM (inactive)	31.1 µM (inactive)			34.7 µM (inactive)				66.8 µM (inactive)	53.6 µM (inactive)
COc1cc(N(CCC#N)CCC#N)ccc1C(=N/NC(=O)c1cc(Br)ccc1O)/N=N/c1ccccc1	31.8 µM (inactive)	27 µM (inactive)	31.1 µM (inactive)	19.4 µM (inactive)	21.5 µM (inactive)	32.1 µM (inactive)	24 µM (inactive)	21.1 µM (inactive)	27.7 µM (inactive)	28.5 µM (inactive)	33.1 µM (inactive)	24.9 µM (inactive)	25.5 µM (inactive)	23.4 µM (inactive)	16.3 µM (inactive)	30.1 µM (inactive)	21.2 µM (inactive)	16.9 µM (inactive)	29.1 µM (inactive)	
C=C(C)CCC(=O)[C@](C)(O)[C@H]1[C@H](O)C[C@@]2(C)[C@@H]3CCc4c(cc(OC5OC(CO)C(O)C(O)C5O)c(O)c4C)C3(C)C(=O)C[C@]12C (some centres undefined)	> 100 µM (inactive)	> 100 µM (inactive)	> 100 µM (inactive)	> 100 µM (inactive)	> 100 µM (inactive)	> 100 µM (inactive)	> 100 µM (inactive)	> 100 µM (inactive)	> 100 µM (inactive)	> 100 µM (inactive)	> 100 µM (inactive)	> 100 µM (inactive)	> 100 µM (inactive)	> 100 µM (inactive)	> 100 µM (inactive)	> 100 µM (inactive)	> 100 µM (inactive)	> 100 µM (inactive)	> 100 µM (inactive)	
